# Where two headings read alike, the source gives them in different places.
# Legend:
# mast cells [1] = settings: compound 48/80; read-out: IC50, compound 48/80 induced histamine release; cited from earlier work
# mast cells [2] = assay: Histamine release from rat isolated peritoneal mast cells and its inhibition; format: cell-based, male Wistar rat; settings: for Histamine Release (%) / inhibition at 5 µM: Sanguinarine 5 µM
# Description: In exemplifying the invention, mast cells were isolated from the peritoneal fluid of male Wistar rat as described in Sugiyama, K. (1971) Japan J. Pharmacol. 21, 209-226. The mast cells were suspended in a phosphate buffered saline solution consisting of 154 mM sodium chloride, 2.7mM potassium chloride, 0.9 mM calcium chloride, 6.7 mM KH₂PO₄-Na₂HPO₄, (pH 7.3), and 0.01% bovine serum albumin obtained from Sigma.
# For the determination of histamine release and its inhibition by sangainarine., mast cells at a cell density of 10⁵ cells/ml suspended in 0.5 ml of phosphate-buffered saline, were incubated at 37°C for 10 minutes with histamine releasers, more about which is stated below. Sanguinarine was added 5 minutes before the specific histamine releaser. After the action was terminated by the addition of 1.5 ml of ice-cold phosphate-buffered saline solution, the samples were centrifuged at 2,000 rpm for 15 minutes. The histamine in the supernatants and precipitates was determined according to the method of Shore, P.A., Burkhalter, A. and Cohn N.H. (1959) J. Pharmacol. Exp Ther. 127, 182-186. Release of histamine was expressed as a percentage of the total cell content. Percentages of inhibition by sanguinarine were measured according to the following equation: [formula] The sanguinarine chloride was provided from Vipont Laboratories Inc. and is manufactured in the manner disclosed above.
# Histidine-rich polypetide fraction A, known as HRP(F-A) was purified from human saliva in accordance with the procedure of Sugiyama, K., Suzuki, Y and Furuta, H (1985) Life Sciences. 37, 475-480. The comparison was carried out with known histamine releasers, namely, 48/80; Concanavalin A; calcium-ionophore A23187. These releasers may be obtained from Sigma Co.
# With regard to Figure 1, inhibition by sanguinarine of histamine release induced by compound 48/80 is shown. The mast cells were incubated at 37°C for 10 minutes with and without compound 48/80 in the presence of sanguinarine in varying concentrations. (●) Sanguinarine with compound 48/80 (0.5 µ g/ml), (0) Sanguinarine without compound 48/80.
# mast cells [3] = settings: release produced by compound 48/80, calcium-ionophore A23187, basic peptide 401; read-out: IC50, inhibition of histamine release; cited from earlier work
# mast cells [4] = assay: Literature (Pearce et al. 1979): inhibition of histamine release produced by compound 48/80, calcium-ionophore A23187 and basic peptide 401; format: cell-based; settings: comparison of IC50 with sanguinarine inhibited histamine release
compound,measurement,setting,value
C[C@]12CCC(=O)C=C1CC[C@@H]1[C@@H]2[C@@H](O)C[C@@]2(C)[C@H]1CC[C@]2(O)C(=O)CO [hydrocortisone],IC50,mast cells [1],2100 µM
"C[n+]1cc2c3c(ccc2c2ccc4cc5c(cc4c21)OCO5)OCO3 [Sanguinarine, sanguinarine]",Histamine Release (%),mast cells [2]; A23187 (1 µ M),21.1%
same,Histamine Release (%),mast cells [2]; Compound 48/80 (0.5 µ g/ml),15.4%
same,Histamine Release (%),mast cells [2]; Con A (10 µg/ml) in the presence of phosphatidylserine (10 µ g/ml),27.3%
same,Histamine Release (%),mast cells [2]; HRP (16 µ M),17.6%
same,IC50,"mast cells [2]; Rattus norvegicus, Mast cell, 10 min, compound 48/80 (0.5 µ g/ml), 37°C, 10 minutes, Figure 1, read-out: IC50 (inhibition concentration), 48/80 induced histamine release from mast cells",~2 µM
same,inhibition at 5 µM,"mast cells [2]; Rattus norvegicus, Mast cell, A23187 (1 µ M)",63.4%
same,inhibition at 5 µM,"mast cells [2]; Rattus norvegicus, Mast cell, Compound 48/80 (0.5 µ g/ml)",78.7%
same,inhibition at 5 µM,"mast cells [2]; Rattus norvegicus, Mast cell, Con A (10 µg/ml) in the presence of phosphatidylserine (10 µ g/ml)",56.6%
same,inhibition at 5 µM,"mast cells [2]; Rattus norvegicus, Mast cell, HRP (16 µ M)",69.4%
same,inhibition at 5 µM,"mast cells [2]; Rattus norvegicus, Mast cell, Triton X-100 (0.01 %)",-10.6%
same,Histamine Release (%),mast cells [2]; Triton X-100 (0.01 %),93.8%
COc1ccc2c(c1)c(CC(=O)O)c(C)n2C(=O)c1ccc(Cl)cc1 [indomethacin],IC50,mast cells [1],75 µM
O=C([O-])c1ccccc1O.[Na+] [sodium salicylate],IC50,mast cells [1],1600 µM
Cn1c(=O)c2[nH]cnc2n(C)c1=O [theophylline],IC50,mast cells [3],10 to 1000 µM
same,times less active than sanguinarine,mast cells [4],10 to 100 times
O=C(O)c1cc(=O)c2c(OCC(O)COc3cccc4oc(C(=O)O)cc(=O)c34)cccc2o1 [cromoglycate],IC50,mast cells [3],10 to 1000 µM
same,times less active than sanguinarine,mast cells [4],10 to 100 times

# — patent publication EP0326628A1, “Method for inhibiting the release of histamine” (VIPONT PHARMACEUTICAL, INC., priority 1988, dated 1989)
